# Results as given in patent US20130143886A1, “METHODS FOR PRESERVING AND/OR INCREASING RENAL FUNCTION USING XANTHINE OXIDOREDUCTASE INHIBITORS” (priority 2006, published 2013).
# Where “and” joins values, the source holds several entries; their conditions need not be identical. Equal values may be shown once.
# How the values were obtained:
# remnant kidney (RK) rats = test: Micropuncture procedure to assess glomerular hemodynamics; type: in vivo, Male Wistar rats; settings: for GFR / Kf / PGC / QA / SNGFR / MAP: end of four weeks; for MAP: under anesthesia
# Method: Male Wistar rats (295-340 g) were used to produce rats with remnant kidney (RK) as follows. […] Rats were then assigned to one of four treatment groups: Group 1, RK control rats (n=7); Group 2, RK+febuxostat (Fx) rats (n=8); […] Oxonic acid (OA) (Sigma-Aldrich, St Louis Mo., USA), administered at 750 mg/kg body weight daily by oral gavage, was given starting the day after the 5⁄6 nephrectomy. […] All groups were treated for four weeks. Body weight (beginning just before surgery) and food and water intakes were measured daily. Systolic blood pressure, measured in conscious rats by a tail cuff sphygmomanometer, and plasma uric acid (UA) levels were measured at just before surgery (namely, at baseline) and at the end of the four weeks. Proteinuria was measured at baseline and at the end of two and four weeks. A renal micropuncture procedure along with systemic blood pressure monitoring under pentobarbital anesthesia was performed at the end of four weeks followed by morphologic evaluation of the renal preglomerular microvasculature. Animals were anesthetized with pentobarbital sodium (30 mg/kg, intraperitoneal (ip)) and placed on a thermoregulated table to maintain body temperature at 37° C. Trachea, jugular veins, femoral arteries and the left ureter were catheterized with polyethylene tubing (PE-240, PE-50, and PE-10). The left kidney was exposed, placed in a Lucite holder, sealed with agar, and covered with Ringer's solution. Mean arterial pressure (MAP) was monitored with a pressure transducer (Model p23 db; Gould, San Juan, Puerto Rico) connected to the catheter in the femoral artery and recorded on a polygraph (Grass Instruments, Quincy, Mass., USA). Blood samples were taken periodically and replaced with blood from a donor rat. Rats were maintained under euvolemic conditions by infusion of 10 mL/kg of body weight of isotonic rat plasma during surgery, followed by an infusion of 25%, polyfructosan, at 2.2 ml/h (Inutest; Fresenius Kabi, Linz, Austria). After 60 minutes, five to seven samples of proximal tubular fluid were obtained to determine flow rate and polyfructosan concentrations. Intratubular pressure under free-flow (FF) and stop-flow (SFP) conditions and peritubular capillary pressure (Pc) were measured in other proximal tubules with a servo-null device (Servo Nulling Pressure System; Instrumentation for Physiology and Medicine, San Diego, Calif., USA). Glomerular colloid osmotic pressure was estimated from protein concentrations obtained from blood of the femoral artery (Ca) and surface efferent arterioles (Ce). Polyfructosan was measured in plasma and urine samples by the anthrone-based technique described by Davidson and […] in “Simplification of the anthrone method for the determination of inulin in clearance studies,” J Lab Clin Med. 62:351-356 (1963), the contents of which are herein incorporated by reference. In brief, plasma samples were deproteinated first with trichloroacetic acid. After centrifugation, the supernatant was used for polyfructosan measurement. Polyfructosan concentrations in plasma and urine samples were assessed by the addition of anthrone reagent followed by incubation at 45° C. for 50 minutes and reading in a spectrophotometer set at wavelength of 620 nm. […] Total GFR was calculated using the following formula: GFR=(U×V)/P, where U is the polyfructosan concentration in urine, V is urine flow rate, and P is the polyfructosan concentration in plasma. The volume of fluid collected from individual proximal tubules was estimated from the length of the fluid column in a constant-bore capillary tube of known internal diameter. The concentration of tubular polyfructosan was measured by the microfluorometric method described by Vurek and Pegram in “Fluorometric method for the determination of nanogram quantities of inulin,” Anal Biochem 16:409-419 (1966), the contents of which are herein incorporated by reference. […]
# [1] = system: human subjects with a history of nephrolithiasis; test: Renal function measures and serum urate in 4-week double-blind phase 2 study and open-label long-term febuxostat study; type: in vivo; settings: for Measured Creatinine Clearance / Serum Creatinine / Urine Uric Acid / Estimated GFR / Serum Urate: individual subjects
# Method: (1) febuxostat 40 mg per day, (2) febuxostat 80 mg per day, (3) febuxostat 120 mg per day, or (4) placebo. Subjects completing the double-blind study entered an open-label, long-term study and began treatment with 80 mg febuxostat per day. Febuxostat doses could be titrated over the initial 6 months to 40 mg or 120 mg febuxostat per day based on the subjects' serum urate levels and the occurrence of adverse events. In the study subset, a post-hoc analysis of nephrolithiasis outcome in the study subjects (n=13) who had received febuxostat for ≧30 months. In the event of an occurrence of renal calculus formation, all such stones were analyzed for mineral content. The following were the criteria for inclusion in the study: (1) a history or presence of gout as defined by the American Rheumatism Association Preliminary criteria; […] (3) serum urate level of ≧8.0 mg/dL at the start of the double-blind study. The following were the criteria for exclusion from the study: […]
# [2] = RK + OA + Fx group (OA-induced hyperuricemia)
# [3] = RK rats (RK + Fx or RK + OA group)
# [4] = double-blind Wk 4, DB dose 40 mg/day
# [5] = double-blind Wk 4, DB dose 80 mg/day
# [6] = double-blind Wk 4, DB dose 120 mg/day
# [7] = open-label Yr 1, OL dose 80 mg/day
# [8] = open-label Yr 1, OL dose 120 mg/day
# [9] = open-label Yr 2, OL dose 80 mg/day
# [10] = open-label Yr 2, OL dose 120 mg/day
# [11] = open-label Yr 3, OL dose 80 mg/day
# [12] = open-label Yr 3, OL dose 120 mg/day
compound,measurement,setting,value
"Cc1nc(-c2ccc(OCC(C)C)c(C#N)c2)sc1C(=O)O [febuxostat, 2-[3-cyano-4-(2-methylpropoxy)phenyl]-4-methylthiazole-5-carboxylic acid]",GFR,remnant kidney (RK) rats; [2],0.44 ± 0.05 mL/min
same,Kf,remnant kidney (RK) rats; [2],0.037 ± 0.004 nL/s · mmHg
same,PGC,remnant kidney (RK) rats; [2],52.0 ± 1.2 mmHg
same,QA,remnant kidney (RK) rats; [2],151 ± 19 nL/min
same,SNGFR,remnant kidney (RK) rats; [2],42.2 ± 4.9 nL/min
same,MAP,remnant kidney (RK) rats; [2],172 ± 8 mmHg
same,GFR,remnant kidney (RK) rats; [3],0.51 ± 0.04 mL/min
same,Kf,remnant kidney (RK) rats; [3],0.035 ± 0.005 nL/s · mmHg
same,PGC,remnant kidney (RK) rats; [3],52.2 ± 1.9 mmHg
same,QA,remnant kidney (RK) rats; [3],142 ± 11 nL/min
same,SNGFR,remnant kidney (RK) rats; [3],36.7 ± 3.1 nL/min
same,MAP,remnant kidney (RK) rats; [3],189 ± 8 mmHg
same,GFR (in words),remnant kidney (RK) rats; RK+Fx and RK+OA+Fx rats vs the two untreated groups,increase GFR compared to the two untreated groups
same,Single-nephron hyperfiltration (in words),"remnant kidney (RK) rats; RK+Fx and RK+OA+Fx rats, normal glomerular pressure and plasma flow maintained",prevented single-nephron hyperfiltration
same,Afferent arteriolar resistances (in words),remnant kidney (RK) rats; RK+OA+Fx rats vs untreated cohorts,higher afferent arteriolar resistances compared to their respective untreated cohorts
same,Measured Creatinine Clearance,[1]; [4],82 mL/min and 56 mL/min
same,Serum Creatinine,[1]; [4],1.2 mg/dL and 1.3 mg/dL
same,Urine Uric Acid,[1]; [4],504 mg/day and 202 mg/day
same,Measured Creatinine Clearance,[1]; [5],103 mL/min and 147 mL/min and 93 mL/min and 88 mL/min and 63 mL/min and 64 mL/min and 94 mL/min
same,Serum Creatinine,[1]; [5],1.1 mg/dL (3×) and 1.2 mg/dL (3×) and 1.5 mg/dL
same,Urine Uric Acid,[1]; [5],387 mg/day and 504 mg/day and 319 mg/day and 286 mg/day and 235 mg/day and 185 mg/day and 403 mg/day
same,Measured Creatinine Clearance,[1]; [6],38 mL/min
same,Serum Creatinine,[1]; [6],1.4 mg/dL
same,Urine Uric Acid,[1]; [6],17 mg/day
same,Estimated GFR,[1]; [7],80 mL/min and 73 mL/min (2×) and 67 mL/min and 68 mL/min (2×) and 57 mL/min and 61 mL/min and 54 mL/min and 33 mL/min and 49 mL/min
same,Serum Creatinine,[1]; [7],1.1 mg/dL (2×) and 1.2 mg/dL (4×) and 1.4 mg/dL (2×) and 1.3 mg/dL and 1.6 mg/dL and 1.5 mg/dL
same,Serum Urate,[1]; [7],4.3 mg/dL and 5.9 mg/dL and 4.4 mg/dL (2×) and 6.1 mg/dL and 4.5 mg/dL and 6.4 mg/dL and 4.1 mg/dL and 3.6 mg/dL and 7.4 mg/dL and 4.6 mg/dL
same,Estimated GFR,[1]; [8],63 mL/min and 84 mL/min
same,Serum Creatinine,[1]; [8],1.2 mg/dL and 1.0 mg/dL
same,Serum Urate,[1]; [8],3.1 mg/dL and 4.6 mg/dL
same,Estimated GFR,[1]; [9],72 mL/min and 80 mL/min and 74 mL/min and 61 mL/min and 62 mL/min and 56 mL/min and 59 mL/min and 39 mL/min and 49 mL/min and 73 mL/min and 75 mL/min
same,Serum Creatinine,[1]; [9],1.2 mg/dL and 1.1 mg/dL (4×) and 1.3 mg/dL (3×) and 1.4 mg/dL (2×) and 1.5 mg/dL
same,Serum Urate,[1]; [9],4.1 mg/dL and 4.2 mg/dL and 4.8 mg/dL and 7.6 mg/dL and 6.4 mg/dL and 9.7 mg/dL and 5.4 mg/dL and 4.7 mg/dL and 6.0 mg/dL and 4.4 mg/dL and 5.7 mg/dL
same,Estimated GFR,[1]; [10],58 mL/min and 75 mL/min
same,Serum Creatinine,[1]; [10],1.3 mg/dL and 1.1 mg/dL
same,Serum Urate,[1]; [10],3.0 mg/dL and 4.2 mg/dL
same,Estimated GFR,[1]; [11],72 mL/min (2×) and 66 mL/min and 61 mL/min and 57 mL/min and 51 mL/min and 54 mL/min and 39 mL/min and 40 mL/min and 65 mL/min and 67 mL/min
same,Serum Creatinine,[1]; [11],1.2 mg/dL (5×) and 1.3 mg/dL and 1.4 mg/dL (3×) and 1.5 mg/dL and 1.8 mg/dL
same,Serum Urate,[1]; [11],5.8 mg/dL (2×) and 3.2 mg/dL and 3.9 mg/dL and 3.3 mg/dL and 7.5 mg/dL and 4.6 mg/dL and 3.8 mg/dL (2×) and 6.8 mg/dL and 5.2 mg/dL
same,Estimated GFR,[1]; [12],57 mL/min and 52 mL/min
same,Serum Creatinine,[1]; [12],1.3 mg/dL and 1.5 mg/dL
same,Serum Urate,[1]; [12],3.3 mg/dL and 3.8 mg/dL
same,Renal function throughout the study,[1]; subjects receiving febuxostat,maintained at generally stable levels
